These results are taken from ChEMBL document CHEMBL1909597, “Biological evaluation of glycosyl-isoindigo derivatives against the pathogenic agents of tropical diseases (malaria, Chagas disease, leishmaniasis and human African trypanosomiasis)” (Bioorg Med Chem Lett, 2011).

Series [1] can be described thus: Selectivity index, ratio of IC50 for rat L6 cells to IC50 for Trypanosoma cruzi Tulahuen C2C4 trypomastigotes. It is filed as toxicity, cell-based. As to conditions: read-out: Ratio IC50.
The next series has as its system Trypanosoma cruzi. The series is described as follows: Antiparasitic activity against trypomastigotes of Trypanosoma cruzi Tulahuen C2C4 expressing LacZ gene infected in rat L6 cells after 96 hrs. Conditions: Tulahuen C2C4, L6, 96 h. It is filed as functional, organism-based.
In another series the test system is Plasmodium falciparum. The series is described as follows: Antiparasitic activity against Plasmodium falciparum K1 […] assessed as inhibition of parasite growth preincubated for 48 hrs before [3H]hypoxanthine addition measured after 24 hrs by [3H]hypoxanthine incorporation assay. It is filed as functional, organism-based.
The test system of series [2] is Trypanosoma brucei rhodesiense. The series is described as follows: Antiparasitic activity against bloodstream form of Trypanosoma brucei rhodesiense STIB 900 […] after 72 hrs by Alamar blue assay. As to conditions: STIB 900, 72 h. It is filed as functional, organism-based. In general terms: Resazurin is reduced to fluorescent resorufin, in cell work by metabolically active cells.

Series [3] in a line: Selectivity index, ratio of IC50 for rat L6 cells to IC50 for bloodstream form of Trypanosoma brucei rhodesiense STIB 900. Format: toxicity, cell-based. As to conditions: read-out: Ratio IC50.
The test system of another series is L6. The series is described as follows: Cytotoxicity against rat L6 cells after 72 hrs by Alamar blue assay. Format: cell-based. As to conditions: L6, 72 h.
For another series, the system named is Leishmania donovani. The series is described as follows: Antiparasitic activity against amastigotes of Leishmania donovani MHOM/ET/67/L82 […] after 72 hrs by Alamar blue assay. It is filed as functional, organism-based. Conditions: MHOM/ET/67/L82, 72 h.
Series [4] in a line: Selectivity index, ratio of IC50 for rat L6 cells to IC50 for Leishmania donovani MHOM/ET/67/L82 amastigotes. Format: toxicity, cell-based. Conditions: read-out: Ratio IC50.
Series [5] in a line: Selectivity index, ratio of IC50 for rat L6 cells to IC50 for Plasmodium falciparum K1. As to conditions: read-out: Ratio IC50. Format: toxicity, cell-based.

SMILES strings stand for the structures.

As for `O=C(Cn1ccnc1[N+](=O)[O-])NCc1ccccc1` [BENZNIDAZOLE], the selectivity ratio in [1] was over 135. For the same molecule, the IC50 (usually the concentration needed to halve the response being measured) in the series with Trypanosoma cruzi was found to be 2.55 µM.

For the molecule `CC(=O)OC[C@H]1O[C@@H](N2C(=O)/C(=C3/C(=O)Nc4ccc(OC(F)(F)F)cc43)c3ccccc32)[C@H](OC(C)=O)[C@@H](OC(C)=O)[C@@H]1OC(C)=O`, the IC50 was over 7 µM with Plasmodium falciparum; 0.6 µM in series [2]; over 130 µM in the series with Trypanosoma cruzi; 124 µM in the series on L6; 11.1 µM with Leishmania donovani. In addition, in [3], the selectivity ratio turned out to be 206.

Consider `Nc1nc(N)nc(Nc2ccc([As]3SCC(CO)S3)cc2)n1` (stereo unspecified) [MELARSOPROL], for which, in [2], the IC50 was 0.013 µM. Also, in [3], the selectivity ratio stood at 193.

Consider `CCCC(=O)c1ccc2c(c1)/C(=C1\C(=O)N([C@@H]3O[C@H](COC(C)=O)[C@@H](OC(C)=O)[C@H](OC(C)=O)[C@H]3OC(C)=O)c3ccc(Br)cc31)C(=O)N2`, for which the IC50 was 2.48 µM with Plasmodium falciparum; 0.51 µM in series [2]; over 120 µM in the series with Trypanosoma cruzi; 99 µM in the series with L6; 3.6 µM in the series on Leishmania donovani. For the same molecule, the selectivity ratio was 27.5 in series [4], 194 in series [3] and 39.9 in series [5].

As for `CCCCCCCCCCCCCCCCOP(=O)([O-])OCC[N+](C)(C)C` [MILTEFOSINE], the selectivity ratio in [4] worked out at 265. In the series on Leishmania donovani, this molecule displayed an IC50 of 0.37 µM.

Take `CC(=O)OC[C@H]1O[C@@H](N2C(=O)/C(=C3/C(=O)Nc4ccccc43)c3ccccc32)[C@H](OC(C)=O)[C@@H](OC(C)=O)[C@@H]1OC(C)=O`: the IC50 is over 8 µM in the series on Plasmodium falciparum; 1.24 µM in series [2]; 11.2 µM in the series on Trypanosoma cruzi; 4.53 µM with L6; 1.93 µM in the series with Leishmania donovani.

Regarding `CCN(CC)CCCC(C)Nc1ccnc2cc(Cl)ccc12` (stereo unspecified) [CHLOROQUINE], the selectivity ratio in [5] worked out at 327.

As to `CC(=O)OC[C@H]1O[C@@H](N2C(=O)/C(=C3/C(=O)Nc4ncccc43)c3cc(Br)ccc32)[C@H](OC(C)=O)[C@@H](OC(C)=O)[C@@H]1OC(C)=O`, the half-maximal inhibitory concentration (IC50) in the series on Plasmodium falciparum was over 7 µM; in series [2] it was 0.88 µM; in the series with Trypanosoma cruzi, 19.3 µM; in the series with L6, 10 µM; with Leishmania donovani, 0.84 µM.
